Values joined by “and” are separate entries in the source; they are usually repeats but may differ in a detail not shown here. Equal values may be shown once. Read-outs that look alike come from different tables or passages of the source.
Tests used:
[1] = tested on: Ca2+-independent phospholipase A2; conditions: ref Yang et al., 1999; cited from earlier work
[2] = tested on: phospholipase C activity in HEK-D2-hDAT cells; format: cell-based, human
[3] = tested on: dopamine transporter; conditions: ref Daniels and Amara, 1999; cited from earlier work
[4] = biological target: T1, human dopamine transporter (hDAT) (Homo sapiens, UniProt Q01959); assay: Dopamine transporter internalization by biotinylation; format: cell-based
T1 sequence (Q01959 whole entry): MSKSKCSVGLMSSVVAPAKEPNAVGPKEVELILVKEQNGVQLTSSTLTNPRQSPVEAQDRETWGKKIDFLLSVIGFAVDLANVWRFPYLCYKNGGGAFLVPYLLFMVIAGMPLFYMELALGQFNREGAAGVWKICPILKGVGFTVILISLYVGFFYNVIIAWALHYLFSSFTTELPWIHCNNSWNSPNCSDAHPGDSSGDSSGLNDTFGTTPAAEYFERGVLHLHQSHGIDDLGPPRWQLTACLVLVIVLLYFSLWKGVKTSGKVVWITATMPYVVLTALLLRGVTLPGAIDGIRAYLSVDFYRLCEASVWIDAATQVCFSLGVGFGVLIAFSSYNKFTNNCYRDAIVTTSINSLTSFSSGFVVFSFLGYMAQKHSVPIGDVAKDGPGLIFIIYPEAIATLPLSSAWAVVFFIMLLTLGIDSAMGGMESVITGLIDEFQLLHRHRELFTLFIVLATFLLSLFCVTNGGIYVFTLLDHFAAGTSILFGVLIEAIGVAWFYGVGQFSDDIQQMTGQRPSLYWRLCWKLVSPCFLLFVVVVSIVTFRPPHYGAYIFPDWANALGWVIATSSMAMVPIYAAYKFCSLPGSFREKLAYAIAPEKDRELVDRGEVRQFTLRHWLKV

[5] = tested on: glutamate uptake; conditions: ref Volterra et al., 1992, 1994; cited from earlier work
[6] = tested on: protein kinase Cγ; conditions: bovine cerebellar cells; ref Shearman et al., 1989; cited from earlier work
[7] = tested on: rat glutamate transporter, EAAT4; conditions: ref Fairman et al., 1998, Tzingounis et al.; cited from earlier work
[8] = tested on: dopamine transporter; conditions: ref Ingram and Amara, 2000; cited from earlier work
[9] = tested on: purified synaptosomes from rat striatum; conditions: rat striatal synaptosomes; ref L'hirondel et al., 1995; cited from earlier work
[10] = tested on: dopamine transporter; conditions: ref Chen et al., 2003, cited from earlier work
[11] = biological target: T1, human dopamine transporter (hDAT); assay: [125I]RTI-55 binding to membranes of HEK-D2-hDAT cells; conditions: no melittin, 4°C, 16 h, 4 independent experiments
[12] = biological target: T1, human dopamine transporter (hDAT); format: cell-based; conditions: butaclamol 100 nM added 10 min before uptake, with melittin 30 min pretreatment
[13] = tested on: rat Leydig cells; conditions: ref Ronco et al., 2002; cited from earlier work
[14] = tested on: phospholipase A2 activity in HEK-D2-hDAT cells; assay: Phospholipase A2 activity after cell treatment; format: cell-based, human; conditions: melittin 10 µM and/or quinacrine 10 µM, 30 min; n=3; not significant P>0.05
[15] = tested on: rat (ventral tegmental area); conditions: pretreatment with quinacrine; ref Reid et al., 1996; cited from earlier work
[16] = tested on: HEK-D2-hDAT cells; assay: [3H]Arachidonic acid release from preloaded cells; format: cell-based, human; conditions: quinpirole 1 nM to 10 µM; loaded 4 or 24 hours; data not shown
[17] = ref Sugama et al., 2005; Nakamura et al., 2004; cited from earlier work
[18] = tested on: GTP binding regulatory proteins; conditions: ref Higashijima et al., 1988; cited from earlier work
[19] = tested on: Ca2+-dependent phospholipase A2; conditions: ref Street et al., 1993; cited from earlier work

With O=C1O/C(=C/Br)CCC1c1cccc2ccccc12 (stereo not shown) [4-bromoenol lactone] as the compound, how does the “inhibition of Ca2+-independent phospholipase A2” value [1] read?
The value was “selectively inhibited”.

With NC[C@@H]1O[C@H](O[C@H]2[C@@H](O)[C@H](O[C@@H]3[C@@H](O)[C@H](N)C[C@H](N)[C@H]3O[C@H]3O[C@H](CN)[C@@H](O)[C@H](O)[C@H]3N)O[C@@H]2CO)[C@H](N)[C@@H](O)[C@@H]1O [neomycin] as the compound, how does the “phospholipase C activity in presence of melittin without or with neomycin” value ([2]; neomycin 30 µM pretreatment, melittin 1.3 µM, 1 hour) read?
Its value is “no significant difference”.

What does the source list for COC(=O)[C@H]1[C@@H](OC(=O)c2ccccc2)C[C@@H]2CC[C@H]1N2C [cocaine]?
effect on phorbol ester-induced dopamine transporter internalization [3]: does not alter phorbol ester-induced dopamine transporter internalization; dopamine transporter internalization [4]: 97.8 ± 6.2 % of control and 93.9 ± 8.4 % of control

For CCCCC/C=C\C/C=C\C/C=C\C/C=C\CCCC(=O)O [arachidonic acid], which “effect on uptake of glutamate” value [5] is on record?
Its value is “inhibits uptake of glutamate”.

What about the “protein kinase Cγ activation” value [6] of the same compound?
The value was “can activate protein kinase Cγ”.

And the “effect on proton conductance” value [7]?
The value was “alters proton conductance”.

And the “effect on cation conductance” value [8]?
Its value is “directly stimulates a cocaine-sensitive cation conductance”.

And the “spontaneous dopamine release, dopamine synthesis and uptake” value [9]?
The value was “dose-dependently increases spontaneous release of dopamine and decreases dopamine synthesis and uptake”.

What about the “dopamine uptake by rotating disk electrode voltammetry” value [10] of the same compound?
The value was “decrease in dopamine uptake”.

For COC(=O)[C@H]1C(c2ccc(I)cc2)C[C@@H]2CC[C@H]1N2C (stereo partly shown) [RTI-55], which “RTI-55 Bmax” value ([11]; protease inhibitors) is on record?
Its value is 6.7 ± 0.8 pmol/mg.

And the Kd ([11]; read-out: RTI-55 KD)?
The Kd was 8.3 ± 1.8 nM.

With CC(C)(C)[C@]1(O)CCN2C[C@H]3c4ccccc4CCc4cccc(c43)[C@@H]2C1 [butaclamol] as the compound, how does the “effect of D2 receptor block on [3H]dopamine uptake” value [12] read?
The value was “no difference in [^3H]dopamine uptake”.

For NCCc1ccc(O)c(O)c1 [dopamine], which “inositol phosphate-1 concentration” value [2] is on record?
The value was 8.8 ± 3.0 nM.

For CCN(CC)CCCC(C)Nc1c2ccc(Cl)cc2nc2ccc(OC)cc12 (stereo not shown) [quinacrine], which “effect on melittin-induced arachidonic acid release” value [13] is on record?
The value was “unable to inhibit melittin-induced release of arachidonic acid”.

What about the “phospholipase A2 activity” value [14] of the same compound?
The value was 134 ± 19 % compared to control.

And the “block of melittin-caused sensitization” value [15]?
Its value is “blocked”.

Which “dopamine uptake by rotating disk electrode voltammetry” value [10] does the source give for CCCCCCCC/C=C\CCCCCCCC(=O)O [oleic, oleic acid] here?
The value was “inhibit dopamine transporter-mediated uptake, although to a lesser degree”.

With CCCCC/C=C\C/C=C\CCCCCCCC(=O)O [linoleic acid] as the compound, how does the “dopamine uptake by rotating disk electrode voltammetry” value [10] read?
Its value is “inhibit dopamine transporter-mediated uptake, although to a lesser degree”.

Which “effect on dopamine transporter function (mimicry of arachidonic acid)” value ([10]; Ingram and Amara, 2000) does the source give for CCCCC/C=C\C/C=C\C/C=C\C/C=C\CCCC(=O)OCC [Arachidonic acid ethyl ester] here?
Its value is “does not mimic the effects of arachidonic acid on dopamine transporter function”.

For CCCN1CCC[C@@H]2Cc3n[nH]cc3C[C@H]21 [quinpirole], which “inositol phosphate-1 concentration” value ([2]; quinpirole 1 µM, 1 hour, basal 8.3 ± 2.5 nM, n=3, not significant P>0.05) is on record?
The value was 11.1 ± 2.0 nM.

What about the “release of loaded [3H]arachidonic acid” value [16] of the same compound?
Its value is “less than 0.4%”.

With mastoparan as the compound, how does the “effect on membrane lipid rafts” value [17] read?
Its value is “disrupts the membrane lipid rafts”.

What about the “stimulation of GTP binding regulatory proteins” value [18] of the same compound?
The value was “stimulate GTP binding regulatory proteins indirectly”.

For CCCCC/C=C\C/C=C\C/C=C\C/C=C\CCCC(=O)C(F)(F)F [Arachidonyl trifluoromethyl ketone], which “inhibition of Ca2+-dependent phospholipase A2” value [19] is on record?
The value was “potent and selective inhibitor”.

Reference: PMC3125126 (European journal of pharmacology, 2010)
